Publication PMC7324522, “Targeting a critical step in fungal hexosamine biosynthesis” (The Journal of Biological Chemistry, 2020)

Legend:
AfGna1 [1] = target: T1, AfGna1 (Aspergillus fumigatus, UniProt Q4WCU5); test: bio-layer interferometry, biotinylated protein on SSA biosensors; format: binding
T1 construct: gene AFUA_6G02460; GST fusion (pGEX6P-1) from E. coli BL21(DE3) pLysS, GST tag cleaved with PreScission; obligate homodimer; 164-165 residues modelled; biotinylated for BLI
T1 sequence (Q4WCU5 1-190): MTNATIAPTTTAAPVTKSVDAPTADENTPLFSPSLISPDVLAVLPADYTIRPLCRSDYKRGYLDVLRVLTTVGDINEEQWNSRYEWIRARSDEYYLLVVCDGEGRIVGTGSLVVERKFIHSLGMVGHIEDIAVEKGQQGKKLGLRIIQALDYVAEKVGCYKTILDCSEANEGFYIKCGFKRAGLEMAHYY

AfGna1 [2] = target: T1, AfGna1; test: bio-layer interferometry, confirmed by isothermal titration calorimetry; format: binding; details: read-out: equilibrium dissociation constant

Row | Structure (SMILES) | Kd (AfGna1 [1]) | Kd (AfGna1 [2])
1 | Nc1cccc(-c2nc[nH]n2)c1Cl [compound 2, 2-chloro-3-(1,2,4-triazol-3-yl)aniline] | 800 nM | 
2 | OCCN(CCO)c1cc(Cl)c(-c2nc[nH]n2)c(Cl)c1 [compound 3, 2,2′-((3,5-dichloro-4-(1,2,4-triazol-3-yl)phenyl)azanediyl)bis(ethan-1-ol)] | 5000 nM | 
3 | Clc1ccccc1-c1nnc[nH]1 [compound 1, fragment hit 1] |  | 6 µM
